Results: US7037663B2, “Human zona pellucida protein 3 and uses thereof” (Eastern Virginia Medical School, priority 1998, dated 2006)

Key:
human sperm [1] = assay: Acrosome reaction of live sperm by FITC-PSA, second series; type: cell-based; details: A23187 5 μM
Description: Determination of the acrosome reaction—The proportion of live acrosome-reacted spermatozoa incubated under capacitating conditions was determined with the fluorescent probe fluorescein isothiocyanate-labeled Pisum Sativum Agglutinin (FITC-PSA, Sigma) after staining with a supravital stain (Hoechst 33258, Sigma) following established techniques (12,13). At least 200 sperm per sample were evaluated in duplicate at 600× magnification using an epifluorescence microscope equipped with phase-contrast optics (Optiphot; Nikon, Melville, N.Y.). Slides were coded and read in a blind fashion.
A calcium ionophore agent (A23187, Sigma) tested at 5 μM and human acid solubilized zona pellucida tested at a final concentration of 4 zona/10 μl were used as positive controls (20). In further experiments, the acrosomal status was assessed by transmission electron microscopy. Spermatozoa were fixed by mixing sperm suspensions with equal volumes of 2% (v/v) glutaraldehyde (in 3 mM CaCl2 and 0.1 M sodium cacodylate); thereafter, samples were dehydrated twice and prepared for thin sectioning using previously published procedures. Ultrastructural examination was performed with a transmission electron microscope (Jeol JEM-1200 EX II, Peabody, Mass.).
Experiment 2: Characterization of the acrosome reaction inducing activity of the rhZP3 in dose- and sperm capacitation-dependency studies—Motile sperm fractions from 29 ejaculates of 11 different donors were incubated under capacitating conditions for 3 hours and assayed for acrosome reaction using FITC-PSA. Following swim-up, sperm aliquots were pre-incubated for 30 minutes with rhZP3 (30 ng/ml), A23187 (positive control), culture medium from non-transfected PA-cells (NT) or sperm culture medium (negative controls). This was the initially selected dose of rhZP3 to be tested as it had proven to effect significant inhibition of sperm-zona binding in the HZA.
The dose-dependent effect of rhZP3 on acrosome reaction was examined in the swim-up fractions obtained from four different donors. The fractions were capacitated for 3 hours and exposed for 30 min to rhZP3 at final concentrations of 0, 7.5, 15, 30, 60, 120, 240, 480, 960 and 1920 ng/ml. The capacitation-dependency of the acrosome reaction-inducing activity of rhZP3 was assessed in the swim-up fractions of four ejaculates from four different donors. Capacitation times included: 0 (immediately post-swim-up), 1, 4, 8, 12 and 24 hours. After the capacitation period, rhZP3 was added to the sperm suspension at a final concentration of 30 ng/ml.
In another set of experiments, three different ejaculates were used to compare the effects of the rhZP3 (tested at 500 ng/ml) with those of solubilized zonae pellucidae and the calcium ionophore. Further, the induction of the acrosome reaction was assessed in parallel with FITC-PSA and transmission electron microscopy. The goal of these studies was to compare the morphological features of the acrosome reaction between agonists and also between the agonist-induced and basal exocytosis rates.

sperm = assay: Sperm motion parameters by computer analyzer; details: data not shown
human sperm [2] = assay: Acrosome reaction of capacitated sperm by FITC/PSA with Hoechst 33258 viability stain, first series; type: cell-based; details: NT 30 ng/ml, calcium ionophore 5 μM, rhZP3 30 ng/ml, solubilized zona 0.5 ZP/μl, mean (± SEM)
Description: The purified rhZP3 was also applied to test its activity to induce human sperm acrosome reaction. The motile sperm obtained by swim-up procedure were allowed to capacitate in HTF/0.5% HSA for four hours at 37° C. in 5% CO2 in huminified air. The motile sperm concentration used to detect acrosome reaction was set at 2 million/ml. A series of 100 ul of capacitated sperm aliquots with different inducers were prepared in Eppendorf vials and cultured in the incubator in 95% air, 5% CO2, at 37° C. for 30 minutes. The test was conducted as follows: positive control: calcium ionophore A23187 (Sigma) at 5 μM; negative controls: 1) sperm culture medium alone, and 2) protein isolated from the culture media of non-transfected PA-1 cells (NT); test: rhZP3. Triple slides were made for each assay. Hoechst 33258 stain was used for determination of sperm viability. Fluorescein isothiocyanate conjugated Pisum sativum agglutinin (FITC/PSA) (Sigma) staining technique was employed to evaluate the acrosome reaction (Cross et al, 1986). Blind reading was required for evaluation and at least 100˜200 cells from 5 random fields were evaluated per spot on the slide. […] The results were expressed as percentage of acrosome-reacted spermatozoa in the total population counted (Cross, 1986).
In some experiments, Solubilized zona pellucida were used as control to test its function to induce sperm acrosome reaction. The solubilized zona pellucida were prepared according to Franken et al (1996). Ooplasma was removed using a small glass micropipette. A vigorous pipetting action would break their zona causing ooplasma to be spilled into surrounding medium. The chosen amount of zonae was transferred into an eppendorf tube and was centrifuged for 15 minutes at 300×g. Using a steromicroscope, the media were removed with pipette, making sure not to disturb zona. The final result was to remove maximum medium. A chosen volume (depending on the zona concentration needed) of 10 mM HCl was added. Under the microscopic vision, zona/HCl was pipetted up and down until all zona were dissolved. Then 10 mM NaOH of equal volume as the HCl was added and mixed well to obtain the stock zona solution.

Gi proteins = assay: Pertussis toxin pre-incubation before rhZP3-induced acrosome reaction; type: cell-based, human
Description: Experiment 3: Acrosome reaction-inducing activity of rhZP3: effect on Gi proteins—Motile sperm fractions were obtained from the ejaculates of three donors and incubated under capacitating conditions. In each experiment, the test aliquot was pre-incubated with pertussis toxin (100 ng/ml final concentration) for 4 hours followed by incubation with rhZP3 (500 ng/ml). A control aliquot was incubated in culture medium alone for 4 hours and then treated with rhZP3 at the same dose. After 30 min exposure to rhZP3 or control conditions, sperm were assayed for acrosome reaction using FITC-PSA.

Molecule: CNc1ccc2oc(C[C@H]3O[C@@]4(CC[C@H]3C)O[C@H]([C@H](C)C(=O)c3ccc[nH]3)[C@H](C)C[C@H]4C)nc2c1C(=O)O [Calcium ionophore, A23187, reference compound]
- live, acrosome reacted sperm (human sperm [1]; rhZP3 30 ng/ml, 3 h capacitation, 30 min exposure): 19.4±4.1%
- induction of the acrosome reaction (human sperm [1]; rhZP3 500 ng/ml, solubilized zona 4 zona/10 μl): 34.7±5.2%
- sperm motion parameters, treatment versus control (sperm): not significantly different
- % acrosome reacted-sperm (human sperm [2]; 4 h capacitation, 30 min): 22.5%
- % sperm viability (human sperm [2]): 96.5 (2.0) %

Molecule: pertussis toxin
- effect on basal rate of spontaneous acrosomal exocytosis (Gi proteins; pertussis toxin 100 ng/ml): did not modify the basal rate of spontaneous acrosomal exocytosis
- effect on induction of the acrosome reaction by rhZP3 (Gi proteins; pertussis toxin 100 ng/ml 4 h, then rhZP3 500 ng/ml 30 min): inhibited the induction of the acrosome reaction by rhZP3
- sperm motion parameters, treatment versus control (sperm): not significantly different
